Data set [1] can be described thus: (§1) Oral bioavailability in rat at 5 mg/kg oral & 2 mg/kg iv dose. The following applies: in vivo. It is filed as ADME, organism-based.
In data set [2] the target is T1, Glycogen phosphorylase, liver form (Homo sapiens, UniProt P06737).
T1 sequence (P06737 whole entry): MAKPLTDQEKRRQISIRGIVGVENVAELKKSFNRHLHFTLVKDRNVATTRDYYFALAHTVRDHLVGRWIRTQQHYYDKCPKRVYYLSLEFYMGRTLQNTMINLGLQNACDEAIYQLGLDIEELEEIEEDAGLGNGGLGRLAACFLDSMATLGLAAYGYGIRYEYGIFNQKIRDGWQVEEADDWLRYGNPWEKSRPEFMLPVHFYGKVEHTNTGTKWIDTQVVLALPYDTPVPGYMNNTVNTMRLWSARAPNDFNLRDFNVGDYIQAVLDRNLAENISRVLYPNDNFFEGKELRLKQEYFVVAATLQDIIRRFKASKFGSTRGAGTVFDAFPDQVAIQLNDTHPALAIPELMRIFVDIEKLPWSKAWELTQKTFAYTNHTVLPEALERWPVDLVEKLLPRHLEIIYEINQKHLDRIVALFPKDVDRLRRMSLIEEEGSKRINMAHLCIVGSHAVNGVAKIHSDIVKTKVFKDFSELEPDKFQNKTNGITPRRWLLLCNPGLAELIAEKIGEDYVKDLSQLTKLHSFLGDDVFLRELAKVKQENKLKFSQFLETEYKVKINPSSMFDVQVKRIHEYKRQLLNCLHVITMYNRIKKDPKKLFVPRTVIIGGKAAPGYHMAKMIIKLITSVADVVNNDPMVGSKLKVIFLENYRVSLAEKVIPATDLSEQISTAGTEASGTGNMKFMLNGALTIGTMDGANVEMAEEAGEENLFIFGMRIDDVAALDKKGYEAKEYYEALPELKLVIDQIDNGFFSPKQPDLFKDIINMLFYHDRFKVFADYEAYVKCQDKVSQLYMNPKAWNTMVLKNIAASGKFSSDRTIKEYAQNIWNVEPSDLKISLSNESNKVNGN
Briefly: Inhibition of human recombinant liver glycogen phosphorylase by multienzyme-coupled reaction.

Data set [3] is filed under the species Rattus norvegicus. Briefly: Free plasma concentration in rat. It is filed as ADME, organism-based. Particulars: in vivo.
Data set [4] deals with T2, CYP1A2 (Homo sapiens, UniProt P05177).
T2 sequence (P05177 whole entry): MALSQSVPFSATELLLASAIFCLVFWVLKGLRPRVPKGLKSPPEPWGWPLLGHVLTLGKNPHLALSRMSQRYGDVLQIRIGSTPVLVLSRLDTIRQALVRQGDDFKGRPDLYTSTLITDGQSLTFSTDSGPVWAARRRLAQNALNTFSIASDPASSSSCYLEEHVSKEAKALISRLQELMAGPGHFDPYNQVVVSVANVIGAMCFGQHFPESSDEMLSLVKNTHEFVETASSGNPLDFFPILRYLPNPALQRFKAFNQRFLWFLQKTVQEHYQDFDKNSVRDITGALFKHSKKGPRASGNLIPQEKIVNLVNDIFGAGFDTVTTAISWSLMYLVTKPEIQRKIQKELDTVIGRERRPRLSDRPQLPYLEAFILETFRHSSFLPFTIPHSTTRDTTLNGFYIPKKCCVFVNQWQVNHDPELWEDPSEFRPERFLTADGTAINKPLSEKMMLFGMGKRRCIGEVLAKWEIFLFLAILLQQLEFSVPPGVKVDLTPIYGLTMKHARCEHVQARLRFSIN
Nature of the data set: Inhibition of CYP1A2 at 10 uM. Type of data set: ADME.

The nature of data set [5]: Half life in male Wistar rats at 4.3 - 4.9 umol/kg iv dose (11 - 12.2 umol/kg oral). Particulars: rat, in vivo. Type of data set: ADME, organism-based.
The nature of data set [6]: Volume of distribution in Wistar rat at […], iv and 11 to 12.2 umol/kg, po. Type of data set: ADME, organism-based. The following applies: in vivo.
The target of data set [7] is CYP2C9 (Homo sapiens, UniProt P11712). Briefly: Inhibition of CYP2C9 at 10 uM. It is filed as ADME.
The target in data set [8] is Voltage-gated inwardly rectifying potassium channel KCNH2 (Homo sapiens, UniProt Q12809).
Data set [9] concerns the target CYP2D6 (Homo sapiens, UniProt P10635). Briefly: Inhibition of CYP2D6 at 10 uM. It is filed as ADME.
Data set [10] concerns the target CYP3A4 (Homo sapiens, UniProt P08684). Briefly: Inhibition of […] at 10 uM. Type of data set: ADME.
Data set [11] has as its target CYP2C19 (Homo sapiens, UniProt P33261). Nature of the data set: Inhibition of CYP2C19 at 10 uM. Type of data set: ADME.
A short description of data set [12]: Oral bioavailability in male Wistar rats at 11 - 12.2 umol/kg oral & 4.3 - 4.9 umol/kg iv dose. Type of data set: ADME, organism-based. The following applies: rat, in vivo.
Data set [13] can be described thus: Clearance in Wistar rat at […], iv and 11 to 12.2 umol/kg, po. Particulars: in vivo. Type of data set: ADME, organism-based.
For data set [14], the system named is Rattus norvegicus. Briefly: Antihyperglycemic activity in Zucker fa/fa rat assessed as reduction in glucose level at 17 umol/kg dosed 45 mins prior to glucagon challenge measured after 90 mins. Type of data set: functional. Further details: scale not given: the % may be the effect or the level left.
Data set [15] deals with Rattus norvegicus. The data set is described as §1. Type of data set: ADME, organism-based. The following applies: in vivo.

Each structure is given as a SMILES string. Values joined by “and” are separate entries in the source; they are usually repeats but may differ in a detail not shown here. Identical values can stand only once. Some results are limits rather than exact numbers.

Chain of CYP2C9 (P11712 whole entry): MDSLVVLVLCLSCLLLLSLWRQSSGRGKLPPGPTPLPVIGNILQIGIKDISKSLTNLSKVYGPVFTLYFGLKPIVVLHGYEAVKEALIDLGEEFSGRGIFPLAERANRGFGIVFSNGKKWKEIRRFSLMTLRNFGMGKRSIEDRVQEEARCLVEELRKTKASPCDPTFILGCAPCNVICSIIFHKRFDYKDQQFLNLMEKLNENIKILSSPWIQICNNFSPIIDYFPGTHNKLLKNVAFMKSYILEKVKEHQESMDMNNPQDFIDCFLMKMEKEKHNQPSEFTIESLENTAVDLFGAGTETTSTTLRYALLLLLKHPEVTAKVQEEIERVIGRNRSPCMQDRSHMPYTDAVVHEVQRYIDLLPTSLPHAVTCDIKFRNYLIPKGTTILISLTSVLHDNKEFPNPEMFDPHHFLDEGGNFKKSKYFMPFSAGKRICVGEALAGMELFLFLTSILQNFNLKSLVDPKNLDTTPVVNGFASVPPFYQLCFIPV
Chain of CYP2D6 (P10635 whole entry): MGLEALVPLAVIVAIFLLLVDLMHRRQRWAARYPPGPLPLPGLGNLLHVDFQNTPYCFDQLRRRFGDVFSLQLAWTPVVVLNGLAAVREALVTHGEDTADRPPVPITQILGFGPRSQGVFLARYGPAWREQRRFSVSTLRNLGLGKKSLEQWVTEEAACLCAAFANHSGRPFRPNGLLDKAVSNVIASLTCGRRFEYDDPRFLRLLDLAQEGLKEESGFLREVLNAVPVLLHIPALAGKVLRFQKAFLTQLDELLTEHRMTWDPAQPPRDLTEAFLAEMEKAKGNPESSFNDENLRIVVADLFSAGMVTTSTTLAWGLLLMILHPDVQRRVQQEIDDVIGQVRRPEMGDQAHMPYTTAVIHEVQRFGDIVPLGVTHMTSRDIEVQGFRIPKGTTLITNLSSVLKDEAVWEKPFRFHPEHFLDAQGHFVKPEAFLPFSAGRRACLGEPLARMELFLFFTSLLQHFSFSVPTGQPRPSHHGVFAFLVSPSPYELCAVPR
Chain of CYP3A4 (P08684 whole entry): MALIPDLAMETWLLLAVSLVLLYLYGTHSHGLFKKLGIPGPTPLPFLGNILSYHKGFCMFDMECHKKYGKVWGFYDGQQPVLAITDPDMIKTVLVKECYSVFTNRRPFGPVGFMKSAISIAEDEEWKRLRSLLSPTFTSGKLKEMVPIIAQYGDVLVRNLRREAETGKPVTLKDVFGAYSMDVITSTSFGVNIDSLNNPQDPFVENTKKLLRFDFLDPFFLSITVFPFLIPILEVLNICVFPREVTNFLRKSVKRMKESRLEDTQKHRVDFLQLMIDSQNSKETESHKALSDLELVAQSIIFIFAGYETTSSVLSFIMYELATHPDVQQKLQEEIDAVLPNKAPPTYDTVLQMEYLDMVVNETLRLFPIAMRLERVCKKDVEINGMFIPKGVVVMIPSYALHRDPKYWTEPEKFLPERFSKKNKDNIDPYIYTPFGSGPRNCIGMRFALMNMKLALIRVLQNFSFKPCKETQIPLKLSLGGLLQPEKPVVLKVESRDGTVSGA
Chain of CYP2C19 (P33261 whole entry): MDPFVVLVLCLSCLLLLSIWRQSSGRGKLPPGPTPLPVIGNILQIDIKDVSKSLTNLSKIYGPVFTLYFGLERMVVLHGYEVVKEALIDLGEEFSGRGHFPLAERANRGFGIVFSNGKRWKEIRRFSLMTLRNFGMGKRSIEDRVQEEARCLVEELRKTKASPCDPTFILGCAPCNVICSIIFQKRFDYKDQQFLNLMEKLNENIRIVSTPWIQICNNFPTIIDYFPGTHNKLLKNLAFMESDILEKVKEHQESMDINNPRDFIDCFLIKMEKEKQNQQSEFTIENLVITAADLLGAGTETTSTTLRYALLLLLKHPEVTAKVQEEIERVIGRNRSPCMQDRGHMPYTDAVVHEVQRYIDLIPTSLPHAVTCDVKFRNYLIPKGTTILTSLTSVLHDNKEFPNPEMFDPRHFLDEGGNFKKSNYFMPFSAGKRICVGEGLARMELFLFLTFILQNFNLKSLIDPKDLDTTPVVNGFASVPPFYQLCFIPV
Chain of Voltage-gated inwardly rectifying potassium channel KCNH2 (Q12809 whole entry): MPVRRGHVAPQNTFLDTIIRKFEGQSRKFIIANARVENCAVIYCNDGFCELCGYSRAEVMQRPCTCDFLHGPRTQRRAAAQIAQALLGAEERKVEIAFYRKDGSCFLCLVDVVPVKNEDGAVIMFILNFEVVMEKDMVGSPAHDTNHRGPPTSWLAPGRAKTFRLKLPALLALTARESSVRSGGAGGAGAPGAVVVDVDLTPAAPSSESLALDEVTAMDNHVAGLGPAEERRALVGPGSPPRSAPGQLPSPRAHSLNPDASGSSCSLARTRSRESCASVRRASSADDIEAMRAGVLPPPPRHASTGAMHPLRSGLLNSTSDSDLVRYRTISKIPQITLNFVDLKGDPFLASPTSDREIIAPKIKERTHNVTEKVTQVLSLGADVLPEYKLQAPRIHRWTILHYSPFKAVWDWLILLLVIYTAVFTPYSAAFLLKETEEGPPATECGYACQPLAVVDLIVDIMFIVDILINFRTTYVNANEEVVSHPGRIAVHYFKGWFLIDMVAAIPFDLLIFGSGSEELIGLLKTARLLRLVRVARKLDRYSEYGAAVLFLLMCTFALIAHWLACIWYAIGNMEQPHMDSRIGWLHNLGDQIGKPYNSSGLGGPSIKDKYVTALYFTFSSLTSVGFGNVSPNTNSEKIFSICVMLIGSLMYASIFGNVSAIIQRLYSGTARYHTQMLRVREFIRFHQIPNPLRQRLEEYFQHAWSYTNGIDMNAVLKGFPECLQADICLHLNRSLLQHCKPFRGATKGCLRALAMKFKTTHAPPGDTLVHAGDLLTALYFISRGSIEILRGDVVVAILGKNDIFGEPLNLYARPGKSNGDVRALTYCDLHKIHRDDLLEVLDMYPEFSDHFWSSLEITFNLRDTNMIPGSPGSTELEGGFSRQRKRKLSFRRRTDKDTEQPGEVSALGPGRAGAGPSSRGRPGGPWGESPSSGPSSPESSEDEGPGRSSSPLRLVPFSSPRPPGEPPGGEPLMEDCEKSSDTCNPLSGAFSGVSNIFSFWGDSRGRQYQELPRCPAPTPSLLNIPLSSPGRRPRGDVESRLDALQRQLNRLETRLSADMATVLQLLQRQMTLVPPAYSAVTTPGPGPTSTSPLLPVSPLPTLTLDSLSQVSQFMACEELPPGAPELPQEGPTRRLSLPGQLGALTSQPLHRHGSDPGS

In general, IC50 refers to the midpoint of a concentration-inhibition curve. `O=C(O)CSC[C@@H]1c2ccccc2C[C@H]1NC(=O)c1cc2sc(Cl)c(Cl)c2[nH]1`: the bioavailability in data set [1] amounted to 23%. Moreover, the IC50 in [2] worked out at 40 nM.
As to `O=C(O)C[C@H]1c2ccccc2C[C@@H]1NC(=O)c1cc2cc(Cl)sc2[nH]1`, the IC50 in data set [2] stood at 1200 nM.
On to `O=C(O)CC[C@@H]1c2ccccc2C[C@H]1NC(=O)c1cc2sc(Cl)c(Cl)c2[nH]1`, for which the bioavailability in data set [1] was found to be 80%. Also, the half-inhibitory concentration (IC50) in data set [2] turned out to be 56 nM.
For the compound `O=C(O)CCC[C@@H]1c2ccccc2C[C@H]1NC(=O)c1cc2sc(Cl)c(Cl)c2[nH]1`, the bioavailability in [1] worked out at 118%. In data set [2], the IC50 is 54 nM.
In the case of `O=C(O)CO[C@@H]1c2ccccc2C[C@H]1NC(=O)c1cc2sc(Cl)c(Cl)c2[nH]1`, the bioavailability in data set [1] was 5%. In data set [2], the IC50 stood at 30 nM.
Taken in the same sequence, the figures for `O=C(O)CCO[C@@H]1c2ccccc2C[C@H]1NC(=O)c1cc2sc(Cl)c(Cl)c2[nH]1` were 55% and 59 nM.
Taken in the same sequence, the figures for `O=C(O)C[C@@H]1c2ccccc2C[C@H]1NC(=O)c1cc2cc(Cl)ccc2[nH]1` were 77% and 57 nM.
For `O=C(O)C[C@@H]1c2ccccc2C[C@H]1NC(=O)c1cc2cc(F)ccc2[nH]1`, the bioavailability in [1] was found to be 88%.
`O=C(O)C[C@@H]1c2ccccc2C[C@H]1NC(=O)c1cc2cc(Cl)sc2[nH]1`: the bioavailability in data set [1] turned out to be 41%. Also, the IC50 in data set [2] stood at 40 nM.
For `O=C(O)C[C@@H]1c2ccccc2C[C@H]1NC(=O)c1cc2cc(Cl)c(F)cc2[nH]1` the same measures were 65% and 76 nM.
Taken in the same sequence, the figures for `O=C(O)CC(=O)N[C@@H]1c2ccccc2C[C@H]1NC(=O)c1cc2sc(Cl)c(Cl)c2[nH]1` were 2% and 56 nM.
In the case of `O=C(O)C[C@@H]1c2ccccc2C[C@H]1NC(=O)c1cc2cc(Cl)ncc2[nH]1`, the fraction unbound in data set [3] stood at 0.01%. The bioavailability in data set [1] was determined as 11%. Further, in [2], the IC50 was 260 nM.
The inhibition is the change of the read-out against control, counted positive when it falls. By half-life is commonly meant the time needed for the level to fall by half in the phase considered. On to `O=C(O)C[C@@H]1c2ccccc2C[C@H]1NC(=O)c1cc2sc(Cl)c(Cl)c2[nH]1`, for which the inhibition at 10 µM in data set [4], in data set [7], in data set [9], in data set [10] and in [11] was under 50% in each case. In addition, in data set [5], the half-life is 8 h. This compound also came in with a Vd in [6] of 0.2 L/kg. Also, the values for the IC50 in data set [8] and in data set [2] were over 30000 nM and 18 nM, respectively. The bioavailability in data set [1] and in data set [12] was 65% throughout. This compound displayed a clearance in [13] of 0.23 mL/min/kg.
As for `O=C(O)C[C@H]1c2ccccc2C[C@@H]1NC(=O)c1cc2sc(Cl)c(Cl)c2[nH]1`, in data set [2], the half-inhibitory concentration (IC50) is 1500 nM.
In turn, `O=C(O)CCCS(=O)(=O)C[C@@H]1c2ccccc2C[C@H]1NC(=O)c1cc2sc(Cl)c(Cl)c2[nH]1` came in with a fraction unbound in data set [3] of 0.3%. In data set [1], the bioavailability was 2%. Moreover, the IC50 in data set [2] was 42 nM.
Turning to `O=C(O)C[C@@H]1c2ccccc2C[C@H]1NC(=O)c1cc2cc(Cl)cc(F)c2[nH]1`, in [1], the bioavailability came out at 41%. Moreover, in data set [2], the IC50 was found to be 52 nM.
Regarding `COCC[C@H](C(=O)O)[C@@H]1c2ccccc2C[C@H]1NC(=O)c1cc2sc(Cl)c(Cl)c2[nH]1` [(S)-2-((1R,2R)-2-(2,3-DICHLORO-4H-THIENO[3,2-B]PYRROLE-5-CARBOXAMIDO)-2,3-DIHYDRO-1H-INDEN-1-YL)-4-METHOXYBUTANOIC ACID (DIASTEREOMERIC MIX)], the inhibition at 10 µM in data set [4], in [7], in [9], in data set [10] and in data set [11] was under 50% each time. The compound further gave a half-life in data set [5] of 7 h. The compound further gave a Vd in data set [6] of 0.2 L/kg. Moreover, in data set [14], the Activity stood at 50%. Also, the F in [15] is 150% and 65%. Further, the bioavailability in data set [12] came out at 118%. In data set [13], this compound came in with a clearance of 0.4 mL/min/kg.

The values above are taken from ChEMBL document CHEMBL1158622, “Discovery of a series of indan carboxylic acid glycogen phosphorylase inhibitors” (Bioorg Med Chem Lett, 2010).
